What was measured:
Type in all cases: cell-based
HIV-1LAI Wild Type = test: AlamarBlue viability assay, HIV-1LAI-infected MT4 cells; conditions: Human immunodeficiency virus 1, MT4, MT4 cells, 10% FCS
Protocol: For the batch of a 96-well MTP, 3 million PBLs are pelletized, suspended in 1 ml of RPMI 1640 medium/10% FCS/2 mmol of L-glutamine/1% Pen/Strep, and incubated together with a suitable amount of HIV-1LA1 (NIH AIDS Research & Reference Reagent Program, Germantown, USA) for 2 hours at 37° C. (pellet infection). Non-adsorbed viruses are then washed out with PBS, the infected cells are pelletized again, and suspended in 18 ml of RPMI 1640 medium/10% FCS/2 mmol of L-glutamine/1% Pen/Strep/interleukin-2 (40 U/ml). Therefrom, 180 μl per well is pipetted into a white 96-well MTP in 20 μl of test substance in a suitable dilution. As an alternative, after preparation of the substance dilutions, the HIV is added by pipetting in the MTP together with the cells and is no longer washed out (supernatant infection). In order to avoid boundary effects, the edge wells of the MTP are not used for substance dilutions. The second vertical row of the MTP contains only infected cells (virus control), and the eleventh vertical row contains only non-infected cells (cell control) in each case in RPMI 1640 medium/10% FCS/2 mmol of L-glutamine/1% Pen/Strep/interleukin-2 (40 U/ml). The other wells of the MTP contain the compounds according to the invention in different concentrations starting from the third vertical row, from which dilution of the test substances is carried out 3^7 times in three steps up to the tenth vertical row. The test substances are dissolved in DMSO, whereby the DMSO final concentration in the test batch is ultimately 1%. The test batches are incubated at 37° C./5% CO2. After 5 and 7 days, in each case 50 μl of cell-free supernatant is drawn off from each well in order to determine the amount of p24 contained by means of p24 ELISA (HIV-1 p24^CA Antigen Capture Assay Kit, NCI-Frederick Cancer Research and Development Center, Frederick, USA). From the resulting values of the photometric analysis (450/620 nm), the EC50 values of the test substances are determined as the concentration of the treated infected cells, in which the amount of p24 is 50% of the untreated infected cells.
As an alternative, MT4 cells are used for testing test substances instead of PBLs. HIV-1LA1-infected MT4 cells (MOI 0.01, supernatant infection) are incubated according to the above-described pattern in RPMI 1640 medium with 2% or 10% FCS/2 mmol of L-glutamine/1% Pen/Strep in the presence of test substances for 5 days at 37° C./5% CO2 (20 μl of substance dilution and 80 μl of cells/virus per well). Then, 10 μl of AlamarBlue (Invitrogen, Karlsruhe, Germany) is added to each well, and MTPs are incubated for 3 hours at 37° C., before the fluorimetric analysis is done (544/590 nm). The resulting values are approximately 30,000 in the case of untreated, non-infected cells, and approximately 6,000 in the case of untreated infected cells. In the low concentration range, the EC50 values of the test substances are determined as the concentration of the treated infected cells, in which the fluorescence is 50% of the untreated non-infected cells (in each case relative to the values of the untreated infected cells). In addition, in the high concentration range, the CC50 values of the test substances are determined as the concentration of the treated infected cells, in which the fluorescence is 50% of the untreated, non-infected cells (in each case relative to the values of the untreated infected cells).

HIV-1NL4-3 K103N-Y181C = test: Luminescence reduction assay, MT4 cells infected with HIV-1NL4-3 luciferase reporter virus, RT mutant K103N-Y181C; conditions: Human immunodeficiency virus 1, MT4, read-out: EC50 (μM) MT4 Cells HIV-1NL4-3 K103N-Y181C 2% FCS, MT4 cells, HIV-1NL4-3 K103N-Y181C, 2% FCS
Excerpt: (§1) For this assay, HIV-1NL4-3 reporter viruses are used, which carry the luciferase164 gene (lu164) instead of the nef gene. The viruses are generated by transfection of 293T cells with the corresponding proviral pNL4-3 plasmid (Lipofectamine Reagent, Invitrogen, Karlsruhe, Germany). Starting from the proviral plasmid-DNA, viruses with defined resistance mutations in the reverse transcriptase gene are produced with the “QuikChange II XL Site-Directed Mutagenesis Kit” (Stratagene, Cedar Creek, Tex., USA). Among other things, the following mutations are generated: A98G, A98G-K103N-V108I, A98S, F227C, F227L, G190A, G190S, K101E, K101Q-K103N, K103N, K103N-F227L, K103N-G190A, K103N-G190S, K103N-M230L, K103N-N348I, K103N-P225H, K103N-V108I, K103N-V108I-P225H, K103N-V179F-Y181C, K103N-Y181C, K103N-Y181C-G190A, L100I, L100I-K103N, L100I-K103N-V179I-Y181C, L100I-K103N-Y181C, L234I, N348I, P225H, P236L, V106A, V106A-E138K, V106A-F227C, V106A-F227L, V106I, V106I-Y188L, V106M, V108I, V179F-Y181C, V179I, V179I-Y181C, Y181C, Y181C-G190A, Y181C-M230L, Y181I, Y188L. MT4 cells infected with these reporter viruses (NIH AIDS Research and Reference Reagent Program) secrete luciferase into the medium, which makes possible the luminometric quantification of the virus replication.
(§2) For the batch of a 96-well MTP, 3 million MT4 cells are pelletized, suspended in 1 ml of RPMI 1640 medium without phenol red (Invitrogen, Karlsruhe, Germany)/10% FCS/2 mmol of L-glutamine/1% Pen/Strep (Invitrogen, Karlsruhe, Germany), and incubated together with a suitable amount of the corresponding HIV-1NL4-3 reporter virus for 2 hours at 37° C. (pellet infection). Non-adsorbed viruses are then washed out with PBS, the infected cells are pelletized again, and suspended in 8 ml of RPM 11640 medium without phenol red/2% or 10% FCS/2 mmol of L-glutamine/1% Pen/Strep. Therefrom, 80 μl per well is pipetted into a white 96-well MTP in 20 μl of test substance in a suitable dilution. In order to avoid boundary effects, the edge wells of the MTP are not used for substance dilutions. The second vertical row of the MTP contains only infected cells (virus control), and the eleventh vertical row contains only non-infected cells (cell control) in each case in RPMI 1640 medium without phenol red/2% or 10% FCS/2 mmol of L-glutamine/1% Pen/Strep. The other wells of the MTP contain the compounds according to the invention in different concentrations starting from the third vertical row, from which dilution of the test substances is carried out 3^7 times in three steps up to the tenth vertical row. The test substances are dissolved in DMSO, whereby the DMSO final concentration in the test batch is ultimately 1%. The test batches are incubated for 5 days at 37° C./5% CO2, and are luminometrically evaluated after the addition of 15 μl of Lu164-buffer (65 mmol of NaCl, 300 mmol of MES, pH 5.8, 5 mmol of glutathione and 1:200 coelenterazine (5 mg/ml in 30 μM of glutathione/DMSO) (P.J.K. GmbH, Kleinblittersdorf, Germany)). In the virus control, the resulting values are in the range of 1 million RLUs (relative light units), and in the cell control, the resulting values are 300 to 400 RLUs. The EC50 values of the test substances are determined as the concentration of the treated infected cells, in which the virus replication measured in RLUs is 50% of the untreated infected cells.

HIV-1NL4-3 Wild Type = test: Luminescence reduction assay, MT4 cells infected with HIV-1NL4-3 luciferase reporter virus, wild type; conditions: Human immunodeficiency virus 1, MT4, MT4 cells, 2% FCS
Excerpt: as §1, §2

Compound | EC50 (HIV-1LAI Wild Type) | EC50 (HIV-1NL4-3 K103N-Y181C) | EC50 (HIV-1NL4-3 Wild Type)
COc1cc(Br)cc(-c2cc(C(=O)N3CCNC(=O)C3)nn2-c2cccnc2)c1 [Example 95] | 0.033 µM | 0.054 µM | 0.005 µM
O=C1CN(C(=O)c2cc(-c3cc(F)cc(OC(F)(F)F)c3)n(-c3ccnc(Cl)c3)n2)CCN1 [Example 63, 4-({-(2-Chloropyridin-4-yl)-5-[3-fluoro-5-(trifluoromethoxy)phenyl]-1H-pyrazol-3-yl}carbonyl)piperazin-2-one] | 2.08 µM | 0.892 µM | 0.354 µM
Cc1cc(-n2nc(C(=O)N3CNC(=O)C3)cc2-c2cc(Br)cc(OC(F)(F)F)c2)ccn1 [Example 53, 1-({5-[3-Bromo-5-(trifluoromethoxy)phenyl]-1-(2-methylpyridin-4-yl)-1H-pyrazol-3-yl}carbonyl)imidazolidin-4-one] | 0.302 µM | 0.008 µM | 0.023 µM
O=C(c1cc(-c2cc(Cl)cc(OC(F)(F)F)c2)n(-c2cccnc2)n1)N1CCSC1 [Example 77, {5-[3-Chloro-5-(trifluoromethoxy)phenyl]-1-(pyridin-3-yl)-1H-pyrazol-3-yl}(1,3-thiazolidin-3-yl)methanone] | 0.861 µM | 0.364 µM | 0.067 µM
O=C1CN(C(=O)c2cc(-c3cc(F)cc(Br)c3)n(-c3cccnc3)n2)CCN1 [Example 91, 4-{[5-(3-Bromo-5-fluorophenyl)-1-(pyridin-3-yl)-1H-pyrazol-3-yl]carbonyl}piperazin-2-one] | 0.055 µM | 0.392 µM | 0.006 µM
O=C1CN(C(=O)c2cc(-c3cc(F)cc(Cl)c3)n(-c3cncc(Cl)c3)n2)CN1 [Example 9, 1-{[5-(3-Chloro-5-fluorophenyl)-1-(5-chloropyridin-3-yl)-1H-pyrazol-3-yl]carbonyl}imidazolidin-4-one] | 0.149 µM | 0.32 µM | 0.035 µM
O=C1CN(C(=O)c2cc(-c3cc(Br)cc(OC(F)(F)F)c3)n(-c3ccc(Cl)nc3)n2)CN1 [Example 34, 1-({5-[3-Bromo-5-(trifluoromethoxy)phenyl]-1-(6-chloropyridin-3-yl)-1H-pyrazol-3-yl}carbonyl)imidazolidin-4-one] | 0.098 µM | 0.003 µM | 0.01 µM
O=C(c1cc(-c2cc(Br)cc(OC(F)(F)F)c2)n(-c2cccnc2)n1)N1CCSC1 [Example 30, (5-[3-Bromo-5-(trifluoromethoxy)phenyl]-1-(pyridin-3-yl)-1H-pyrazol-3-yl) (1,3-thiazolidin-3-yl)methanone] | 0.794 µM | 0.181 µM | 0.033 µM
O=C1CN(C(=O)c2cc(-c3cncc(C(F)(F)F)c3)n(-c3ccc(F)c(Cl)c3)n2)CN1 [Example 106, 1-({1-(3-Chloro-4-fluorophenyl)-5-[5-(trifluoromethyl)pyridin-3-yl]-1H-pyrazol-3-yl}carbonyl)imidazolidin-4-one] | 0.084 µM | 0.12 µM | 0.082 µM
O=C1CN(C(=O)c2cc(-c3cc(F)cc(Cl)c3)n(-c3cccnc3)n2)CN1 [Example 3, 1-{[5-(3-Chloro-5-fluorophenyl)-1-(pyridin-3-yl)-1H I-pyrazol-3-yl]carbonyl}imidazolidin-4-one] | 0.028 µM | 0.067 µM | 0.006 µM
O=C1CN(C(=O)c2cc(-c3cncc(C(F)(F)F)c3)n(-c3ccc(F)c(Cl)c3)n2)CCN1 [Example 107] | 0.263 µM | 1.28 µM | 0.299 µM
COc1cc(Br)cc(-c2cc(C(=O)N3CCNC(=O)C3)nn2-c2ccnc(Cl)c2)c1 [Example 97, 4-{[5-(3-Bromo-5-methoxyphenyl)-1-(2-chloropyridin-4-yl)-1H-pyrazol-3-yl]carbonyl}piperazin-2-one] | 0.068 µM | 0.116 µM | 0.013 µM
O=C1CN(C(=O)c2cc(-c3cc(F)cc(Cl)c3)n(-c3cccnc3)n2)CCN1 [Example 4, 4-{[5-(3-Chloro-5-fluorophenyl)-1-(pyridin-3-yl)-1H-pyrazol-3-yl]carbonyl}piperazin-2-one] | 0.108 µM | 0.132 µM | 0.036 µM
O=C1CN(C(=O)c2cc(-c3cc(F)cc(OC(F)(F)F)c3)n(-c3cccnc3)n2)CN1 [Example 57, 1-({5-[3-Fluoro-5-(trifluoromethoxy)phenyl]-1-(pyridin-3-yl)-1H-pyrazol-3-yl}carbonyl)imidazolidin-4-one] | 0.183 µM | 0.05 µM | 0.016 µM
O=C1CN(C(=O)c2cc(-c3cc(F)cc(Cl)c3)n(-c3cncc(Cl)c3)n2)CCN1 [Example 10] | 1.71 µM | > 3.3 µM | 0.149 µM
O=C1CN(C(=O)c2cc(-c3cc(Br)cc(OC(F)(F)F)c3)n(-c3cncc(Cl)c3)n2)CN1 [Example 42, 1-({5-[3-Bromo-5-(trifluoromethoxy)phenyl]-1-(5-chloropyridin-3-yl)-1H-pyrazol-3-yl}carbonyl)imidazolidin-4-one] | 0.247 µM | 0.028 µM | 0.018 µM

— US9296720B2, “Carboxamide-substituted heteroaryl-pyrazoles and the use thereof” (AiCuris GmbH & Co. KG, priority 2011, dated 2016)
